Measured values reported in ChEMBL document CHEMBL1131351, “Nonsteroidal progesterone receptor antagonists based on a conformationally-restricted subseries of 6-aryl-1,2-dihydro-2,2,4-trimethylquinolines” (Bioorg Med Chem Lett, 1998).

How the values were obtained:
Progesterone receptor [1] = biological target: T1, Progesterone receptor (Homo sapiens, UniProt P06401); assay: Antagonist activity against human progesterone receptor B (hPR-B) in co-transfected CV-1 cells; assay type: functional, cell-based
T1 sequence (P06401 whole entry): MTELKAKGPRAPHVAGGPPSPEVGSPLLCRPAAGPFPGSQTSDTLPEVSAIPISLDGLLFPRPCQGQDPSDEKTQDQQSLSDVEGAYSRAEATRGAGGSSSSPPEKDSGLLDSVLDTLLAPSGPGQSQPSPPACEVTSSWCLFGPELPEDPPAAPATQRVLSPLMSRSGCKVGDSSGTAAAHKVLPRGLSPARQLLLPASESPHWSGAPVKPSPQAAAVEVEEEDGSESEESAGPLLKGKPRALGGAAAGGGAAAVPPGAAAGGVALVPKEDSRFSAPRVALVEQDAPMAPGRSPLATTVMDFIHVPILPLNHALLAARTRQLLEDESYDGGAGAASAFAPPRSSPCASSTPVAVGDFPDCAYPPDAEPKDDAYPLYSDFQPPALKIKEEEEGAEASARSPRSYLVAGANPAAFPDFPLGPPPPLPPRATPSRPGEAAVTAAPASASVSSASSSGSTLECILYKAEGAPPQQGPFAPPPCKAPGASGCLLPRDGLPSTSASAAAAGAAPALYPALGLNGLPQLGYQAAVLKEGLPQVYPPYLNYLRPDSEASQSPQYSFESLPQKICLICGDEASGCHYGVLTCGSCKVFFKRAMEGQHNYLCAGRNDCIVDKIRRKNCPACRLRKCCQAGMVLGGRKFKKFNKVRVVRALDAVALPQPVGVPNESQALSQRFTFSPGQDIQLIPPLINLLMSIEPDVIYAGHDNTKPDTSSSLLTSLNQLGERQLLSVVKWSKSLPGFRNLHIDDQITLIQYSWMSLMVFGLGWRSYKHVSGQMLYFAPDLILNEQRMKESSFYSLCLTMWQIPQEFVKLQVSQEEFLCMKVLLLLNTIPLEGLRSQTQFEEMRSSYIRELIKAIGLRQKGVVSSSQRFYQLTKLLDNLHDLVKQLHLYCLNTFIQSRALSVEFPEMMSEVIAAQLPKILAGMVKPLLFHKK

Progesterone receptor [2] = biological target: T1, Progesterone receptor; assay: Binding affinity against human progesterone receptor-A (hPR-A)
Progesterone receptor [3] = biological target: T1, Progesterone receptor; assay: Agonistic activity against human progesterone receptor B (hPR-B) in co-transfected CV-1 cells; assay type: functional, cell-based

Structure (SMILES) | IC50 (Progesterone receptor [1]) [nM] | Ki (Progesterone receptor [2]) [nM] | EC50 (Progesterone receptor [3]) [nM]
CC1=CC(C)(C)Nc2cc3c(cc21)-c1ccc(F)cc1C3O (configuration not stated) | 122 | 101 | –
CC1CC(C)(C)Nc2cc3c(cc21)-c1ccccc1C3 (configuration not stated) | 424 | 87 | –
CC1=CC(C)(C)Nc2cc3c(cc21)-c1ccc(Br)cc1C3O (configuration not stated) | 3440 | 1860 | –
CC1=CC(C)(C)Nc2cc3c(cc21)-c1c(F)cc(F)cc1C3O (configuration not stated) | 80 | 25.5 | –
CC1=CC(C)(C)Nc2cc3c(cc21)-c1cc(F)c([N+](=O)[O-])cc1C3 | 100 | 1.9 | –
CC1=CC(C)(C)Nc2cc3c(c(F)c21)-c1ccc(F)cc1C3 | – | 1.5 | 650
CC(=O)c1ccc2c(c1)Cc1cc3c(cc1-2)C(C)=CC(C)(C)N3 | 164 | 176 | –
CC1=CC(C)(C)Nc2cc3c(cc21)-c1c(F)cccc1C3O (configuration not stated) | 99 | 449 | –
CC1=CC(C)(C)Nc2cc(F)c3c(c21)C(O)c1cc(F)ccc1-3 (configuration not stated) | 10000 | 2580 | –
CC1=CC(C)(C)Nc2cc3c(c(F)c21)-c1ccc(F)cc1C3(C)O (configuration not stated) | 10000 | > 10000 | –
CC1=CC(C)(C)Nc2cc3c(c(F)c21)-c1ccc(F)cc1C3OC(=O)C(F)(F)F (configuration not stated) | 46 | 62.5 | –
CC1=CC(C)(C)Nc2cc3c(cc21)-c1c(F)ccc(F)c1C3 | 146 | 3.1 | –
CC1=CC(C)(C)Nc2cc3c(cc21)-c1cc(F)cc(F)c1C3O (configuration not stated) | 74 | 202 | –
CCCCn1c2ccccc2c2ccc3c(c21)C(C)=CC(C)(C)N3 | 416 | 77 | –
CC1=CC(C)(C)Nc2cc3c(c(F)c21)-c1ccc(F)cc1C3=O | 365 | > 10000 | –
CC1=CC(C)(C)Nc2cc3c(cc21)-c1ccc([N+](=O)[O-])cc1C3 | 90 | 3.6 | –
CC1=CC(C)(C)Nc2cc3c(cc21)-c1ccc(Br)cc1C3Cc1ccccc1 (configuration not stated) | 10000 | > 10000 | –
CC1=CC(C)(C)Nc2cc3c(cc21)-c1ccc(Br)cc1C3C (configuration not stated) | 10000 | > 10000 | –
CC1=CC(C)(C)Nc2cc3c(cc21)-c1c(F)cccc1C3=O | 158 | 29.1 | –

Continued, values first:

IC50 (Progesterone receptor [1]) [nM] | Ki (Progesterone receptor [2]) [nM] | EC50 (Progesterone receptor [3]) [nM] | Structure (SMILES)
3330 | 97 | – | CC1=CC(C)(C)Nc2ccc3c(c21)Cc1cc([N+](=O)[O-])c(F)cc1-3
609 | 483 | – | CC1=CC(C)(C)Nc2cc3c(cc21)-c1ccccc1C3O (configuration not stated)
220 | 14 | – | CC1=CC(C)(C)Nc2cc3c(cc21)-c1ccccc1C3
496 | 15.5 | – | CC1=CC(C)(C)Nc2ccc3c(c21)Cc1c(F)cccc1-3
1140 | 77 | – | CC1=CC(C)(C)Nc2ccc3c(oc4ccccc43)c21
– | 3.5 | – | CC1=CC(C)(C)Nc2cc3c(cc21)-c1ccc(F)cc1C3
1850 | 184 | – | CC1=CC(C)(C)Nc2cc3oc4ccccc4c3cc21
248 | 29 | – | CC1=CC(C)(C)Nc2cc3c(cc21)-c1ccc(Cl)cc1C3
59 | 113 | – | CC1=CC(C)(C)Nc2cc3[nH]c4ccccc4c3cc21
2330 | 200 | – | CC1=CC(C)(C)Nc2ccc3c(c21)Cc1cc(Br)ccc1-3
10000 | 12.4 | – | CC1=CC(C)(C)Nc2cc3c(cc21)-c1cccc(CO)c1C3
1670 | 57 | – | CC1=CC(C)(C)Nc2ccc3c(c21)Cc1cc([N+](=O)[O-])ccc1-3
434 | 24 | – | CC1=CC(C)(C)Nc2cc3c(cc21)-c1ccc(Br)cc1C3
662 | > 1000 | – | CC1=CC(C)(C)Nc2ccc3c([nH]c4ccccc43)c21
163 | 53.1 | – | CC1=CC(C)(C)Nc2cc3c(c(Cl)c21)-c1ccccc1C3O (configuration not stated)
353 | 3550 | – | CC1=CC(C)(C)Nc2cc3c(cc21)-c1ccccc1C3=O
5680 | 20.9 | – | CC1=CC(C)(C)Nc2cc(F)c3c(c21)Cc1cc(F)ccc1-3
549 | 13 | – | CC1=CC(C)(C)Nc2ccc3c(c21)Cc1ccccc1-3
284 | 169 | – | CCn1c2ccccc2c2ccc3c(c21)C(C)=CC(C)(C)N3
1770 | 2.3 | – | CC1=CC(C)(C)Nc2cc3c(cc21)-c1cccc(F)c1C3
